The test system of test [1] is RIF-1. Kind of test: Photosensitizing efficacy in RIF cells at 0.6-2.5 uM and light dose of 0-10 J/cm2 by MTT assay. Type of test: functional, cell-based. The settings on record: Mus musculus.
Test [2] concerns Mus musculus. Kind of test: In vivo photosensitizing efficacy in RIF cells of C3H mouse at 1 umol/kg 90 days post-dose. It is filed as functional.

The values that follow come from ChEMBL document CHEMBL1138160, “In vivo stability and photodynamic efficacy of fluorinated bacteriopurpurinimides derived from bacteriochlorophyll-a” (2006).

For `CC[C@H]1c2cc3nc4c(c5[nH]c(cc6[nH]c(cc(n2)[C@@H]1C)c(C(C)NCc1cc(C(F)(F)F)cc(C(F)(F)F)c1)c6C)[C@@H](C)[C@@H]5CCC(=O)OC)C(=O)N(Cc1cc(C(F)(F)F)cc(C(F)(F)F)c1)C(=O)C4=C3C` (some centres not stated), the Activity entry was “Dose-dependent effect” in test [1] and 60% in test [2].
